T1: VEGFR-3/EpoR (Homo sapiens, UniProt P35916)
T1 construct: a chimeric receptor containing the extracellular domain of human VEGFR-1, VEGFR-2 or VEGFR-3 fused with the transmembrane and cytoplasmic domains; expressed in transfected cells; host or cells: murine Ba/F3 pre-B cells, stably transfected
T1 sequence (P35916 25-775 limits assumed): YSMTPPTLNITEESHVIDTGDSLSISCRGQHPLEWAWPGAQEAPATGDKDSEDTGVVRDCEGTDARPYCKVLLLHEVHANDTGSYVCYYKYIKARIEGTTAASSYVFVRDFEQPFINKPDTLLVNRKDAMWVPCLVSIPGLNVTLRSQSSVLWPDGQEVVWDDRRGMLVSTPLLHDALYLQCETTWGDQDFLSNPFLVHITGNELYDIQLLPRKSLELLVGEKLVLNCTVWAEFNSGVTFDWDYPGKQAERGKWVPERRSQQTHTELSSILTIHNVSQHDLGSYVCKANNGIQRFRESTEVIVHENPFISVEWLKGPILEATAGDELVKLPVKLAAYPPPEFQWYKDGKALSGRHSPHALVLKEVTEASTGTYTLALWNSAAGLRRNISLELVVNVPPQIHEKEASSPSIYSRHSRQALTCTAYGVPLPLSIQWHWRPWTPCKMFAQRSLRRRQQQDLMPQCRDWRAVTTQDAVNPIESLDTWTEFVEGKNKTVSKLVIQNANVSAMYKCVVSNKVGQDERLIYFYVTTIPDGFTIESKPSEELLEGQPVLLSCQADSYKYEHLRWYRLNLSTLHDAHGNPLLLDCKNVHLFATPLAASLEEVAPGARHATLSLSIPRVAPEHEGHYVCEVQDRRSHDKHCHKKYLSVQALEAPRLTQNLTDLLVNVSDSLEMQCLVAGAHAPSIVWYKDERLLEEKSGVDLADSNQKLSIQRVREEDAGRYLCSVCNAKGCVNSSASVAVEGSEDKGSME


Key:
[1] = target: T2, VEGFR-1/EpoR (Homo sapiens, UniProt P17948); assay: Ba/F3 bioassay, viability (MTT) of VEGFR-1/EpoR cells; type: cell-based; conditions: FIG. 1A
T2 construct: a chimeric receptor containing the extracellular domain of human VEGFR-1, VEGFR-2 or VEGFR-3 fused with the transmembrane and cytoplasmic domains; expressed in transfected cells
Procedure: (§1) FIG. 1A-FIG. 1C. Analysis of the receptor-specificities of different VEGFs using the Ba/F3 bioassay. Measurement of the viability of Ba/F3 cells expressing the chimeric receptors VEGFR-1/EpoR (FIG. 1A), VEGFR-2/EpoR (FIG. 1B) or VEGFR-3/EpoR (FIG. 1C) in the presence of different VEGFs at indicated concentrations. Cell viability was determined using the MTT assay. Data represent the mean values from triplicate assays (mean±s.d.). FIG. 1D-FIG. 1G. Biosensor analysis of the interaction of VEGF-C (FIG. 1D, FIG. 1E) and VEGF-C156S (FIG. 1F, FIG. 1G) with VEGFR-3 (FIG. 1D, FIG. 1F) and VEGFR-2 (FIG. 1E, FIG. 1G). Chimeric receptor proteins were immobilized onto a carboxymethylated dextran surface. Growth factors were injected over the surface at a flow rate of 20 μl/min at the indicated concentrations. The sensorgrams shown have been subtracted with the corresponding signal obtained when the same sample was passed over a blank control channel.
(§2) Bioassay for VEGFR stimulation. […]
(§3) VEGF is an endothelial cell mitogen which has been also shown to protect endothelial cells from starvation and TNF-a induced apoptosis via activation of VEGFR-2 (Gerber et al, J. Biol. Chem., 273:30336-30343, 1998; Spyridopoulos et al., J. Mol. Cell. Cardiol., 29:1321-1330, 1997). […] The specificities of the growth factors used were determined using a cell survival bioassay. […]

[2] = tested on: VEGFR-3 expressing lymphatic endothelial cells; assay: Culture and proliferation (PCNA) of isolated VEGFR-3 positive lymphatic endothelial cells; type: cell-based, human; conditions: complete medium with 5% serum supplemented with VEGF 10 ng/ml or VEGF-C 100 ng/ml
Procedure: In order to compare the effects of the VEGFs on the survival of lymphatic versus blood vascular endothelial cells, specific antibodies and magnetic microbeads were used to isolate and to culture the VEGFR-3 positive and negative cells. Briefly, in this protocol, three separate sets of VEGFR-3 expressing lymphatic endothelial cells were cultured: a first set was cultured in complete medium containing 5% serum, the second set was cultured in complete medium containing 5% serum and supplemented with VEGF (10 ng/ml,) and the third set was cultured in complete medium containing 5% serum supplemented with VEGF-C (100 ng/ml). The VEGFR-3 positive cells were grown for five days after sorting in serum or supplemented with VEGFC and then stained for podoplanin and proliferating cell nuclear antigen (PCNA). The nuclei were stained with the Hoechst fluorochrome. If supplemented with VEGF-C or VEGF, the cells were stained for PCNA. Immunofluorescence double-staining of non-sorted cells or VEGFR-3 negative and VEGFR-3 positive cell populations with antibodies against podoplanin or VEGFR-3 also was performed.

[3] = target: T1, VEGFR-3/EpoR; assay: Ba/F3 bioassay, viability (MTT) of VEGFR-3/EpoR cells; type: cell-based
Procedure: as §1, §2, §3

T2 sequence (P17948 27-758 limits assumed): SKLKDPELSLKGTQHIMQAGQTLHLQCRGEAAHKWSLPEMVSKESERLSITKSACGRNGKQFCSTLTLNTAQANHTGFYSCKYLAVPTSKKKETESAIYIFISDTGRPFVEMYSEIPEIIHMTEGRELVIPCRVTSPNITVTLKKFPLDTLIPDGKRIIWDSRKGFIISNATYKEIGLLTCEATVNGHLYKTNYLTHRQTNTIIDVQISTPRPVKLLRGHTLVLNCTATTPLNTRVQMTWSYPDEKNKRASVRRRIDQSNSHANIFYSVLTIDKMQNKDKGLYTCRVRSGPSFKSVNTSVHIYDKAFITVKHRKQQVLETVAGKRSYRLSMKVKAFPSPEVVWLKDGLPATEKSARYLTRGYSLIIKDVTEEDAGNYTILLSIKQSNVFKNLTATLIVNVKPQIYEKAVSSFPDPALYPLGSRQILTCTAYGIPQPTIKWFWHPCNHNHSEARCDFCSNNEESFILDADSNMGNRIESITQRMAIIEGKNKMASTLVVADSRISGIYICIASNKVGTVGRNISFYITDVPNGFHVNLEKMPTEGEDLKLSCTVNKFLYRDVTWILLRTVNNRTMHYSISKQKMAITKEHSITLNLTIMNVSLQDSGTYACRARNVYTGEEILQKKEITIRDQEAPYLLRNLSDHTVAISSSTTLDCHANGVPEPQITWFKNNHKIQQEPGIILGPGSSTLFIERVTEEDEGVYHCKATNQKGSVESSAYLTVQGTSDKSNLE

Molecule	survival of VEGFR-1/EpoR cells [1]	proliferation of isolated podoplanin positive cells [2]	concentration which gave maximal viability in VEGFR-3/EpoR cell survival assays ([3]; Ba/F3 VEGFR-3/EpoR cells)	survival of VEGFR-3/EpoR expressing cells ([3]; Ba/F3 cells, FIG. 1C)
VEGF	able to induce the survival of VEGFR-1/EpoR cells	most of the podoplanin positive cells proliferated readily	–	–
VEGF-C156S: VEGFR-3 specific mutant form of VEGF-C, cysteine 156 changed into serine; recombinant human (Thr103 to Ile225) (protein, UniProt P49767 103-225, looked up, variant C156S) TEETIKFAAAHYNTEILKSIDNEWRKTQCMPREVCIDVGKEFGVATNTFFKPPSVSVYRCGGCCNSEGLQCMNTSTSYLSKTLFEITVPLSQGPKPVTISFANHTSCRCMSKLDVYRQVHSII	–	–	500 ng/mL	VEGFR-3/EpoR expressing cells survived

— US20080317723A1, “LYMPHATIC ENDOTHELIAL CELLS MATERIALS AND METHODS” (VEGENICS LIMITED, priority 2001, published 2008)
